Assay results from patent publication US7745647B2, “Diterpenes from the fruiting body of Antrodia camphorata and pharmaceutical compositions thereof” (Kang Jian Biotech Corp, Ltd., priority 2006, dated 2010).

System: primary cultures of neonatal cortical neurons exposed to 5 μM Aβ25-35
Assay: Protection of cortical neurons against Aβ25-35-induced cell death (MTT reduction analysis)
Type: cell-based, rat
Details: for protected neurons from Aβ damage by: 5 μM Aβ; for cell death (%): then 5 μM Aβ25-35 for 40 h, MTT, mean ± S.D., three experiments
Procedure: In this study, primary cultures of neonatal cortical neurons from the cerebral cortex of Harlan Sprague-Dawley rat pups at postnatal day were used as target cells. Primary cultures of neonatal cortical neurons were prepared from the cerebral cortex of Harlan Sprague-Dawley rat pups at postnatal day 1. Briefly, each pup was decapitated and the cortex was digested in 0.5 mg/mL papain at 37° C. for 15 min. The tissue was dissociated in Hibernate A medium (containing B27 supplement) by aspirating trituration to separate cells. Cells were plated (at the density of 5×10^4 cells/cm^2) onto poly-D-lysine-coated dishes and maintained in Neurobasal medium containing B27 supplement, 10 units/mL penicillin, […], and 0.5 mg/mL glutamine (5% CO2/9% O2) for 3 days. Cells were then exposed to cytosine-β-D-arabinofuranoside (5 μM) for 1 day to inhibit proliferation of non-neuronal cells. The cells were used for the experiment on the fifth day.
The effects of isolated pure compounds on Aβ25-35-treated cell apoptosis were determined by a MTT method for evaluating neuroprotective activity. The mitochondrial dehydrogenase activity was assayed by reduction cleavage of the tetrazolium salt MTT (3-[4,5-dimethylthiazol-2-yl]-2,5-diphenyltetrazolium bromide), to yield a purple dye with absorbance read at about 570 nm. Results are expressed as percentage of control absorbance. Cortical neurons prepared as described above were incubated with vehicle (0.1% DMSO) or various concentrations of the compounds for 2 h then exposed to 5 μM Aβ for 40 h. The cell viability was assessed by MTT reduction analysis. Cells were incubated with minimum essential medium containing 0.5 mg/mL MTT for 1 h. The medium was aspirated, and the formazan particle was dissolved with DMSO. The absorbance at 600 nm was measured using an enzyme-linked immunosorbent assay reader. Results are expressed as means±S.D. and were analyzed by ANOVA with post hoc multiple comparison with a Bonferroni test.

Compound | protected neurons from Aβ damage by (at concentration of 5 μM) [%] | cell death (%) (compound 1 μM for 2 h) | cell death (%) (compound 5 μM for 2 h) | cell death (%) (compound 10 μM for 2 h) | cell death (%) (compound 20 μM for 2 h) | protected neurons from Aβ damage by (at concentration of 10 μM) [%] | protected neurons from Aβ damage by (at concentration of 20 μM) [%]
C=C1CCC2[C@@](C)(CO)CCC[C@]2(C)[C@H]1CCC1CCOC1=O (some centres unmarked) [Compound 1, 19-hydroxylabda-8(17)-en-16,15-olide] | 25.3 | 34.4 ± 3.4 | 25.3 ± 5.7 | 28.1 ± 5.7 | 30.8 ± 5.0 |  | 
C=C1CC[C@@H]2[C@](C)(CC[C@H](O)[C@]2(C)CO)[C@H]1/C=C/[C@@H]1CCOC1=O [Compound 2, 3β,19-dihydroxylabda-8(17), 11E-dien-16,15-olide] |  | 43.8 ± 9.5 | 34.9 ± 2.6 | 29.5 ± 6.4 | 26.3 ± 9.4 | 29.5 | 
C=C1CC[C@@H]2[C@](C)(CC[C@H](O)[C@]2(C)CO)[C@H]1/C=C/C1CCOC1=O (stereo partly drawn) [Compound 3, 13-epi-3β,19-dihydroxylabda-8(17), 11E-dien-16,15-olide] |  | 45.1 ± 3.5 | 39.6 ± 3.4 | 36.7 ± 8.7 | 29.3 ± 10.6 | 36.7 | 
C=C1CC[C@H]2[C@@](C)(CO)CCC[C@]2(C)[C@H]1CCC1=CCOC1=O [Compound 4, 19-hydroxylabda-8(17),13-dien-16,15-olide] |  | 41.2 ± 3.4 | 34.8 ± 3.2 | 28.9 ± 8.1 | 32.6 ± 7.2 | 28.9 | 
C=C1CCC2C(C)(CO)C(O)CCC2(C)C1C=CC1=CCOC1=O (centres unmarked) [Compound 5, 14-deoxy-11,12-didehydroandrographolide] |  | 40.7 ± 3.3 | 35.7 ± 1.9 | 30.8 ± 5.7 | 29.5 ± 5.0 |  | 29.5
Ac-DEVD-CHO [reference compound] |  | 35.8 ± 3.5 | 30.2 ± 5.5 | 24.5 ± 4.6 | 23.1 ± 1.6 |  | 
